Converted amounts (≈) assume the structure as drawn.
How the values were obtained:
[1] = system: Staphylococcus epidermidis; assay: Antibacterial activity against drug-resistant Staphylococcus epidermidis by broth microdilution method; type: functional
[2] = system: Pseudomonas aeruginosa; assay: Antibacterial activity against drug-resistant Pseudomonas aeruginosa by broth microdilution method; type: functional
[3] = system: Salmonella typhi; assay: Antibacterial activity against drug-resistant Salmonella typhi by broth microdilution method; type: functional, Salmonella enterica subsp. enterica serovar Typhi; settings: Salmonella enterica
[4] = system: Escherichia coli; assay: Antibacterial activity against Escherichia coli ATCC 35218 by broth microdilution method; type: functional
[5] = system: Pseudomonas aeruginosa; assay: Antibacterial activity against Pseudomonas aeruginosa ATCC 27853 by broth microdilution method; type: functional
[6] = system: Escherichia coli; assay: Antibacterial activity against drug-resistant Escherichia coli by broth microdilution method; type: functional
[7] = system: Staphylococcus aureus; assay: Antibacterial activity against drug-resistant Staphylococcus aureus by broth microdilution method; type: functional
[8] = system: Escherichia coli; assay: Antibacterial activity against Escherichia coli ATCC 25922 by broth microdilution method; type: functional
[9] = system: Staphylococcus aureus; assay: Antibacterial activity against Staphylococcus aureus ATCC 25923 by broth microdilution method; type: functional
[10] = system: Klebsiella pneumoniae; assay: Antibacterial activity against drug-resistant Klebsiella pneumoniae by broth microdilution method; type: functional

Row | Structure (SMILES) | MIC [1] [µg/mL] | MIC [2] [µg/mL] | MIC [3] [µg/mL] | MIC [4] [µg/mL] | MIC [5] [µg/mL] | MIC [6] [µg/mL] | MIC [7] [µg/mL] | MIC [8] [µg/mL] | MIC [9] [µg/mL] | MIC [10] [µg/mL]
1 | CC[C@H]1OC(=O)[C@H](C)C(=O)[C@H](C)[C@@H](O[C@@H]2O[C@H](C)C[C@H](N(C)C)[C@H]2O)[C@](C)(OC)C[C@@H](C)C(=O)[C@@](C)(O)[C@H](O)[C@]1(C)O | > 128 | > 128 | > 128 | > 128 | > 128 | > 128 | > 128 | > 128 | 64 (≈ 106 µM) | > 128
2 | CC[C@H]1OC(=O)[C@H](C)C(=O)[C@H](C)[C@@H](O[C@@H]2O[C@H](C)C[C@H](N(C)C)[C@H]2O)[C@](C)(OC)C[C@@H](C)C(=O)[C@@](C)(O)[C@H]2OC(=O)O[C@]12C | 64 (≈ 102 µM) | > 128 | > 128 | > 128 | > 128 | > 128 | > 128 | > 128 | 128 (≈ 203 µM) | > 128
3 | CC[C@H]1OC(=O)[C@H](C)C(=O)[C@H](C)[C@@H](O[C@@H]2O[C@H](C)C[C@H](N(C)C)[C@H]2O)[C@](C)(OC)C[C@@H](C)C(=O)[C@@](C)(O)[C@H]2OS(=O)O[C@]12C (stereo not given in full) | 8 (≈ 12.3 µM) | > 128 | > 128 | > 128 | > 128 | > 128 | > 128 | > 128 | 64 (≈ 98.5 µM) | > 128
4 | CC[C@H]1OC(=O)[C@H](C)C(=O)[C@H](C)[C@@H](O[C@@H]2O[C@H](C)C[C@H](N(C)C)[C@H]2O)[C@](C)(OC)C[C@@H](C)C(=O)[C@]2(C)O[C@H]2[C@]1(C)O | 128 (≈ 219 µM) | > 128 | > 128 | > 128 | > 128 | > 128 | > 128 | > 128 | 128 (≈ 219 µM) | > 128
5 | CC[C@H]1OC(=O)[C@H](C)C(=O)[C@H](C)[C@@H](O[C@@H]2O[C@H](C)C[C@H](N(C)C)[C@H]2O)[C@](C)(OC)C[C@@H](C)C(=O)[C@@H](C)[C@H]2OC(=O)O[C@@]21C | 0.0625 (≈ 0.102 µM) | > 128 | 128 (≈ 209 µM) | 128 (≈ 209 µM) | > 128 | 64 (≈ 104 µM) | 128 (≈ 209 µM) | 128 (≈ 209 µM) | 64 (≈ 104 µM) | 128 (≈ 209 µM)
6 | CC[C@H]1OC(=O)[C@H](C)[C@@H](O[C@H]2C[C@@](C)(OC)[C@@H](O)[C@H](C)O2)[C@H](C)[C@@H](O[C@@H]2O[C@H](C)C[C@H](N(C)C)[C@H]2O)[C@](C)(OC)C[C@@H](C)C(=O)[C@H](C)[C@@H](O)[C@]1(C)O [CLARITHROMYCIN] | 64 (≈ 85.6 µM) | 128 (≈ 171 µM) | 64 (≈ 85.6 µM) | 32 (≈ 42.8 µM) | 64 (≈ 85.6 µM) | 64 (≈ 85.6 µM) | > 128 | 64 (≈ 85.6 µM) | 32 (≈ 42.8 µM) | 64 (≈ 85.6 µM)
7 | CC[C@H]1OC(=O)[C@H](C)C(=O)[C@H](C)[C@@H](O[C@@H]2O[C@H](C)C[C@H](N(C)C)[C@H]2O)[C@](C)(OC)C[C@@H](C)C(=O)[C@H](C)[C@H]2N(CCCCn3cnc(-c4cccnc4)c3)C(=O)O[C@]12C [TELITHROMYCIN] | 0.125 (≈ 0.154 µM) | 64 (≈ 78.8 µM) | 16 (≈ 19.7 µM) | 8 (≈ 9.85 µM) | 64 (≈ 78.8 µM) | 32 (≈ 39.4 µM) | 16 (≈ 19.7 µM) | 2 (≈ 2.46 µM) | 16 (≈ 19.7 µM) | 16 (≈ 19.7 µM)

Reference: ChEMBL document CHEMBL2380278, “Synthesis and antibacterial evaluation of a novel series of 10-hydroxyl ketolide derivatives” (2013)
